In assay [1] the test system is Plasmodium falciparum. Put plainly: (§1) Inhibition of Plasmodium falciparum recombinant refolded falcipain 2 activity using ZFR-AMC as a substrate after 30 mins by fluorimetric assay.
Assay [2] deals with Plasmodium falciparum. Put plainly: Inhibition of Plasmodium falciparum recombinant falcipain 2 using fluorogenic ZFR-AMC substrate at 5 uM after 30 mins by fluorimetric assay.
Assay [3] in a line: as §1.
Assay [4] concerns Plasmodium falciparum. In words: Antimalarial activity against Plasmodium falciparum infected in human RBC assessed as swollen food vacuole at early trophozoite stage at 200 nM after 48 hrs by Giemsa staining based microscopy. It counts as functional, organism-based.
Assay [5] has as its system Plasmodium falciparum. Put plainly: Antimalarial activity against Plasmodium falciparum infected in human RBC assessed as clumps of malarial pigment at 200 nM after 48 hrs by Giemsa staining based microscopy. The assay is classed as functional, organism-based.
The test system of assay [6] is Plasmodium falciparum. Put plainly: Antimalarial activity against Plasmodium falciparum infected in human RBC assessed as abnormal schizonts at 200 nM after 48 hrs by Giemsa staining based microscopy. It counts as functional, organism-based.

In general, inhibition refers to the percentage by which the read-out fell short of the control. A word on the pKi: it is the negative decadic logarithm of the Ki, by convention in mol/L.

pKi: −log10 of the molar value. The source made the active and inactive calls. The calls are words filed in the database; no cut-off is given here. Peptide text beside a SMILES is read from it.

As to `CC(=O)N[C@@H](CC(C)C)C(=O)N[C@@H](CC(C)C)C(=O)N[C@H](C=O)CCCNC(=N)N`, the inhibition entry in the assay with Plasmodium falciparum [1] was “Active”.

As for `CC(C)C[C@H](NC(=O)[C@H]1O[C@@H]1C(=O)O)C(=O)NCCCCN=C(N)N`, in the assay on Plasmodium falciparum [1], the inhibition entry was “Active”.

As to `CC[C@H](C)[C@H](NC(=O)CNC(=O)[C@H](CO)NC(=O)[C@@H](NC(=O)[C@H](CC(C)C)NC(=O)[C@@H]1CSSC[C@H](NC(=O)[C@H](C)NC(=O)CNC(=O)[C@H](CC(C)C)NC(=O)[C@H](CC(C)C)NC(=O)[C@@H](N)CCCNC(=N)N)C(=O)NCCCC(=O)N1)C(C)C)C(N)=O` (HELM PEPTIDE1{R.L.L.G.A.C.[O=C(CCCN[*:1])[*:2]].C.L.V.S.G.I.[am]}$PEPTIDE1,PEPTIDE1,6:R3-8:R3$$$V2.0), the inhibition in the assay on Plasmodium falciparum [2] is 39%.

Regarding `CC[C@H](C)[C@H](NC(=O)CNC(=O)[C@H](CO)NC(=O)[C@@H](NC(=O)[C@H](CC(C)C)NC(=O)[C@H](CCC(N)=O)NC(=O)[C@@H]1CSSC[C@H](NC(=O)[C@@H]2CCCN2C(=O)[C@H](C)NC(=O)CNC(=O)[C@H](CC(C)C)NC(=O)[C@H](CC(C)C)NC(=O)[C@@H](N)CCCNC(=N)N)C(=O)NCCCC(=O)N1)C(C)C)C(N)=O` (HELM PEPTIDE1{R.L.L.G.A.P.C.[O=C(CCCN[*:1])[*:2]].C.Q.L.V.S.G.I.[am]}$PEPTIDE1,PEPTIDE1,7:R3-9:R3$$$V2.0), the inhibition with Plasmodium falciparum [2] turned out to be 39%.

As for `CC[C@H](C)[C@H](NC(=O)CNC(=O)[C@H](CO)NC(=O)[C@@H](NC(=O)[C@H](CC(C)C)NC(=O)[C@H](CCC(N)=O)NC(=O)[C@@H]1CSSC[C@H](NC(=O)[C@@H]2CCCN2C(=O)[C@H](C)NC(=O)CNC(=O)[C@H](CC(C)C)NC(=O)[C@H](CC(C)C)NC(=O)[C@@H](N)CCCNC(=N)N)C(=O)NCCCC(=O)N1)C(C)C)C(=O)NCCC(=O)NCCC(=O)N1CCC[C@H]1C(=O)N[C@@H](Cc1c[nH]c2ccccc12)C(N)=O` (HELM PEPTIDE1{R.L.L.G.A.P.C.[O=C(CCCN[*:1])[*:2]].C.Q.L.V.S.G.I.[bAla].[bAla].P.W.[am]}$PEPTIDE1,PEPTIDE1,7:R3-9:R3$$$V2.0), the inhibition in the assay on Plasmodium falciparum [2] was found to be 39%.

Regarding `CC[C@H](C)[C@H](NC(=O)CNC(=O)[C@H](CO)NC(=O)[C@@H](NC(=O)[C@H](CC(C)C)NC(=O)[C@H](CCC(N)=O)NC(=O)[C@H](CCCNC(=N)N)NC(=O)CCCNC(=O)[C@@H](NC(=O)[C@@H]1CCCN1C(=O)[C@H](C)NC(=O)CNC(=O)[C@H](CC(C)C)NC(=O)[C@H](CC(C)C)NC(=O)[C@@H](N)CCCNC(=N)N)C(C)C)C(C)C)C(N)=O` (HELM PEPTIDE1{R.L.L.G.A.P.V.[O=C(CCCN[*:1])[*:2]].R.Q.L.V.S.G.I.[am]}$$$$V2.0), the negative logarithm of the Ki (pKi) in assay [3] was 5.60. In the assay with Plasmodium falciparum [2], the inhibition was 57%. Moreover, the outcome in the assay with Plasmodium falciparum [4], in the assay with Plasmodium falciparum [5] and in the assay with Plasmodium falciparum [6] was Active.

Regarding `CC[C@H](C)[C@H](NC(=O)CNC(=O)[C@H](CO)NC(=O)[C@@H](NC(=O)[C@H](CC(C)C)NC(=O)[C@H](CCC(N)=O)NC(=O)[C@H](CCCNC(=N)N)NC(=O)CCCNC(=O)[C@@H](NC(=O)[C@@H]1CCCN1C(=O)[C@H](C)NC(=O)CNC(=O)[C@H](CC(C)C)NC(=O)[C@H](CC(C)C)NC(=O)[C@@H](N)CCCNC(=N)N)C(C)C)C(C)C)C(=O)NCCC(=O)NCCC(=O)N1CCC[C@H]1C(=O)N[C@@H](Cc1c[nH]c2ccccc12)C(N)=O` (HELM PEPTIDE1{R.L.L.G.A.P.V.[O=C(CCCN[*:1])[*:2]].R.Q.L.V.S.G.I.[bAla].[bAla].P.W.[am]}$$$$V2.0), the inhibition in the assay on Plasmodium falciparum [2] stood at 49%. In addition, the result in the assay with Plasmodium falciparum [4], in the assay with Plasmodium falciparum [5] and with Plasmodium falciparum [6] was Active.

Turning to `CC[C@H](C)[C@H](NC(=O)CNC(=O)[C@H](CO)NC(=O)[C@@H](NC(=O)[C@H](CC(C)C)NC(=O)[C@H](CCC(N)=O)NC(=O)[C@H](CCCNC(=N)N)NC(=O)[C@H]1CC[C@@H](NC(=O)[C@@H](NC(=O)[C@@H]2CCCN2C(=O)[C@H](C)NC(=O)CNC(=O)[C@H](CC(C)C)NC(=O)[C@H](CC(C)C)NC(=O)[C@@H](N)CCCNC(=N)N)C(C)C)CC1)C(C)C)C(N)=O` (HELM PEPTIDE1{R.L.L.G.A.P.V.[O=C([C@H]1CC[C@@H](N[*:1])CC1)[*:2]].R.Q.L.V.S.G.I.[am]}$$$$V2.0), in assay [3], the pKi was 5.70. For the same molecule, the inhibition in the assay on Plasmodium falciparum [2] is 63%. Further, the result in the assay with Plasmodium falciparum [4], in the assay with Plasmodium falciparum [5] and with Plasmodium falciparum [6] was Active.

As to `CC[C@H](C)[C@H](NC(=O)CNC(=O)[C@H](CO)NC(=O)[C@@H](NC(=O)[C@H](CC(C)C)NC(=O)[C@H](CCC(N)=O)NC(=O)[C@H](CCCNC(=N)N)NC(=O)[C@H]1CC[C@@H](NC(=O)[C@@H](NC(=O)[C@@H]2CCCN2C(=O)[C@H](C)NC(=O)CNC(=O)[C@H](CC(C)C)NC(=O)[C@H](CC(C)C)NC(=O)[C@@H](N)CCCNC(=N)N)C(C)C)CC1)C(C)C)C(=O)NCCC(=O)NCCC(=O)N1CCC[C@H]1C(=O)N[C@@H](Cc1c[nH]c2ccccc12)C(N)=O` (HELM PEPTIDE1{R.L.L.G.A.P.V.[O=C([C@H]1CC[C@@H](N[*:1])CC1)[*:2]].R.Q.L.V.S.G.I.[bAla].[bAla].P.W.[am]}$$$$V2.0), the pKi in assay [3] is 5.60. The inhibition with Plasmodium falciparum [2] came to 60%. In addition, the result with Plasmodium falciparum [4], in the assay on Plasmodium falciparum [5] and with Plasmodium falciparum [6] was Active.

As for `CC[C@H](C)[C@H](NC(=O)CNC(=O)[C@H](CO)NC(=O)[C@@H](NC(=O)[C@H](CC(C)C)NC(=O)[C@H](CCC(N)=O)NC(=O)CCCNC(=O)[C@@H]1CCCN1C(=O)[C@H](C)NC(=O)CNC(=O)[C@H](CC(C)C)NC(=O)[C@H](CC(C)C)NC(=O)[C@@H](N)CCCNC(=N)N)C(C)C)C(N)=O` (HELM PEPTIDE1{R.L.L.G.A.P.[O=C(CCCN[*:1])[*:2]].Q.L.V.S.G.I.[am]}$$$$V2.0), the inhibition in the assay with Plasmodium falciparum [2] was 44%. Besides, the result in the assay on Plasmodium falciparum [4], in the assay on Plasmodium falciparum [5] and in the assay with Plasmodium falciparum [6] was Active.

For `CC[C@H](C)[C@H](NC(=O)CNC(=O)[C@H](CO)NC(=O)[C@@H](NC(=O)[C@H](CC(C)C)NC(=O)[C@H](CCC(N)=O)NC(=O)CCCNC(=O)[C@@H]1CCCN1C(=O)[C@H](C)NC(=O)CNC(=O)[C@H](CC(C)C)NC(=O)[C@H](CC(C)C)NC(=O)[C@@H](N)CCCNC(=N)N)C(C)C)C(=O)NCCC(=O)NCCC(=O)N1CCC[C@H]1C(=O)N[C@@H](Cc1c[nH]c2ccccc12)C(N)=O` (HELM PEPTIDE1{R.L.L.G.A.P.[O=C(CCCN[*:1])[*:2]].Q.L.V.S.G.I.[bAla].[bAla].P.W.[am]}$$$$V2.0), the inhibition in the assay with Plasmodium falciparum [2] worked out at 32%.

On to `CC[C@H](C)[C@H](NC(=O)CNC(=O)[C@H](CO)NC(=O)[C@@H](NC(=O)[C@H](CC(C)C)NC(=O)[C@H](CCC(N)=O)NC(=O)[C@H]1CC[C@@H](NC(=O)[C@@H]2CCCN2C(=O)[C@H](C)NC(=O)CNC(=O)[C@H](CC(C)C)NC(=O)[C@H](CC(C)C)NC(=O)[C@@H](N)CCCNC(=N)N)CC1)C(C)C)C(N)=O` (HELM PEPTIDE1{R.L.L.G.A.P.[O=C([C@H]1CC[C@@H](N[*:1])CC1)[*:2]].Q.L.V.S.G.I.[am]}$$$$V2.0), for which the inhibition in the assay with Plasmodium falciparum [2] turned out to be 50%. Also, the outcome with Plasmodium falciparum [4], with Plasmodium falciparum [5] and in the assay on Plasmodium falciparum [6] was Active.

In the case of `CC[C@H](C)[C@H](NC(=O)CNC(=O)[C@H](CO)NC(=O)[C@@H](NC(=O)[C@H](CC(C)C)NC(=O)[C@H](CCC(N)=O)NC(=O)[C@H]1CC[C@@H](NC(=O)[C@@H]2CCCN2C(=O)[C@H](C)NC(=O)CNC(=O)[C@H](CC(C)C)NC(=O)[C@H](CC(C)C)NC(=O)[C@@H](N)CCCNC(=N)N)CC1)C(C)C)C(=O)NCCC(=O)NCCC(=O)N1CCC[C@H]1C(=O)N[C@@H](Cc1c[nH]c2ccccc12)C(N)=O` (HELM PEPTIDE1{R.L.L.G.A.P.[O=C([C@H]1CC[C@@H](N[*:1])CC1)[*:2]].Q.L.V.S.G.I.[bAla].[bAla].P.W.[am]}$$$$V2.0), the inhibition in the assay on Plasmodium falciparum [2] came to 57%. The outcome with Plasmodium falciparum [4], in the assay on Plasmodium falciparum [5] and in the assay on Plasmodium falciparum [6] was Active.

Consider Ac-RQLVSGI-NH2, for which, in the assay on Plasmodium falciparum [2], the inhibition amounted to 10%.

For the molecule H-RLLGAPV-NH2, the inhibition with Plasmodium falciparum [2] worked out at 5%. Besides, the outcome in the assay on Plasmodium falciparum [4], in the assay on Plasmodium falciparum [5] and with Plasmodium falciparum [6] was Active.

For the origin of these results see ChEMBL document CHEMBL1795236, “Design and synthesis of protein-protein interaction mimics as Plasmodium falciparum cysteine protease, falcipain-2 inhibitors” (Eur J Med Chem, 2011).
